Laboratory results as given in ChEMBL document CHEMBL1201862, “PubChem BioAssay data set” (2004).
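Briefly, cells in 96-well plates were exposed to five compound concentrations for 48 h, and endpoints were estimated by linear interpolation. Abbreviation: GI50, concentration required for 50% inhibition of growth.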 The source made the active and inactive calls. Rule as the data show it: active = GI50 up to about 1.1 µM and inactive = higher.

Legend:
Assay in all cases: NCI tumour cell line growth inhibition, 48 h
A498 = system: A498
A549 = system: A549
DU-145 = system: DU-145
HCC 2998 = system: HCC 2998
HCT-15 = system: HCT-15
M14 = system: M14
MCF7 = system: MCF7
MDA-MB-435 = system: MDA-MB-435
NCI-H226 = system: NCI-H226
NCI-H23 = system: NCI-H23
NCI-H460 = system: NCI-H460
NCI-H522 = system: NCI-H522
OVCAR-3 = system: OVCAR-3
SF-295 = system: SF-295
SF-539 = system: SF-539
SK-MEL-5 = system: SK-MEL-5
SN12C = system: SN12C
SNB-19 = system: SNB-19
U-251 = system: U-251
UACC-62 = system: UACC-62

SMILES	GI50 (A498)	GI50 (A549)	GI50 (DU-145)	GI50 (HCC 2998)	GI50 (HCT-15)	GI50 (M14)	GI50 (MCF7)	GI50 (MDA-MB-435)	GI50 (NCI-H226)	GI50 (NCI-H23)	GI50 (NCI-H460)	GI50 (NCI-H522)	GI50 (OVCAR-3)	GI50 (SF-295)	GI50 (SF-539)	GI50 (SK-MEL-5)	GI50 (SN12C)	GI50 (SNB-19)	GI50 (U-251)	GI50 (UACC-62)
CC[C@H]1C=CCC[C@@]2(C[C@@H]3CC[C@H]4[C@H](C(=O)OCCCCCCCCCCCCCCCC(=O)N(CCCN)C[C@@H](O)CCN)[C@]5(CCC[C@@H](C)O5)NC(=[N+]34)N2)O1	1.45 µM (inactive)	0.48 µM (active)	1.1 µM (active)	0.575 µM (active)	0.723 µM	0.231 µM (active)	0.421 µM (active)	0.338 µM (active)	1.04 µM (active)	1.34 µM (inactive)	0.52 µM (active)	1.04 µM (active)	1.41 µM (inactive)	1.63 µM (inactive)	1.49 µM (inactive)	0.268 µM (active)	0.776 µM (active)	1.21 µM (inactive)	0.378 µM (active)	0.202 µM (active)
CSc1nc(=S)[nH]c2c1c(C)nn2-c1ccccc1	30.5 µM (inactive)	31.3 µM (inactive)	15.6 µM (inactive)	30.6 µM (inactive)	20.3 µM	40.5 µM (inactive)	17.8 µM (inactive)	40.5 µM (inactive)	17.7 µM (inactive)	17.6 µM (inactive)	10.2 µM (inactive)	19.1 µM (inactive)	35.5 µM (inactive)	22.9 µM (inactive)	28.1 µM (inactive)	13.1 µM (inactive)	21.1 µM (inactive)	23.3 µM (inactive)	29.4 µM (inactive)	14.5 µM (inactive)
O=S(=O)(O)C(Cc1nc2ccccc2[nH]1)S(=O)(=O)OCCC1S(=O)(=O)OCCOS1(=O)=O (stereo not given)	> 100 µM (inactive)	> 100 µM (inactive)	> 100 µM (inactive)	> 100 µM (inactive)	> 100 µM	> 100 µM (inactive)	> 100 µM (inactive)	> 100 µM (inactive)	> 100 µM (inactive)	> 100 µM (inactive)	> 100 µM (inactive)	> 100 µM (inactive)	> 100 µM (inactive)	> 100 µM (inactive)	> 100 µM (inactive)	> 100 µM (inactive)	> 100 µM (inactive)	> 100 µM (inactive)	> 100 µM (inactive)	> 100 µM (inactive)
C=C1CC(Cn2ccc(=O)[nH]c2=O)(c2ccc(Cl)cc2)OC1=O (stereo not given)	16.4 µM (inactive)	16.9 µM (inactive)	9.53 µM (inactive)	13.9 µM (inactive)	2.45 µM	3.56 µM (inactive)	1.87 µM (inactive)	8.15 µM (inactive)	22.9 µM (inactive)	5.48 µM (inactive)	9.53 µM (inactive)	0.839 µM (active)	7.1 µM (inactive)	18.8 µM (inactive)	15.6 µM (inactive)	3.05 µM (inactive)	11.6 µM (inactive)	31.4 µM (inactive)	17.7 µM (inactive)	5.15 µM (inactive)
CCOC(=O)c1c(N2CCCC2)[nH]c(=O)c(C(c2ccc(Cl)c([N+](=O)[O-])c2)c2c(O)c(C(=O)OCC)c(N3CCCC3)[nH]c2=O)c1O	33 µM (inactive)	> 100 µM (inactive)	60.8 µM (inactive)	> 100 µM (inactive)	> 100 µM	20.8 µM (inactive)	28.6 µM (inactive)	29.4 µM (inactive)	63.5 µM (inactive)	22 µM (inactive)	> 100 µM (inactive)	24.5 µM (inactive)	29.9 µM (inactive)	37.6 µM (inactive)	19.2 µM (inactive)	37.8 µM (inactive)	36.2 µM (inactive)	15.5 µM (inactive)	14.9 µM (inactive)	26.8 µM (inactive)
Cc1c(O)c(OC2OC(CO)C(O)C(O)C2O)cc2c1C=C[C@@H]1[C@@]2(C)C(=O)C[C@]2(C)[C@@H]([C@@](C)(O)C(O)/C=C/C(C)(C)O)[C@H](O)C[C@@]12C (stereo not given in full)	> 100 µM (inactive)	> 100 µM (inactive)	> 100 µM (inactive)	> 100 µM (inactive)	> 100 µM	> 100 µM (inactive)	> 100 µM (inactive)	> 100 µM (inactive)	> 100 µM (inactive)	> 100 µM (inactive)	> 100 µM (inactive)	> 100 µM (inactive)	> 100 µM (inactive)	> 100 µM (inactive)	> 100 µM (inactive)	> 100 µM (inactive)	> 100 µM (inactive)	> 100 µM (inactive)	> 100 µM (inactive)	> 100 µM (inactive)
CCC1(CC)C(=O)N(C(=O)c2cc(OC)c(OC)c(OC)c2)N(C(=O)c2cc(OC)c(OC)c(OC)c2)C1=O	> 50 µM (inactive)	> 50 µM (inactive)	> 50 µM (inactive)	> 50 µM (inactive)	> 50 µM	> 50 µM (inactive)	> 50 µM (inactive)	> 50 µM (inactive)	> 50 µM (inactive)	> 50 µM (inactive)	> 50 µM (inactive)	> 50 µM (inactive)	> 50 µM (inactive)	24.8 µM (inactive)	> 50 µM (inactive)	46.1 µM (inactive)	21.8 µM (inactive)	> 50 µM (inactive)	> 50 µM (inactive)	> 50 µM (inactive)
NCCCc1c(-c2ccccc2)[nH]c(N)nc1=O	> 100 µM (inactive)	> 100 µM (inactive)	> 100 µM (inactive)	> 100 µM (inactive)	> 100 µM	> 100 µM (inactive)	> 100 µM (inactive)	> 100 µM (inactive)	> 100 µM (inactive)	> 100 µM (inactive)	> 100 µM (inactive)	> 100 µM (inactive)	> 100 µM (inactive)	> 100 µM (inactive)	> 100 µM (inactive)	> 100 µM (inactive)	> 100 µM (inactive)	> 100 µM (inactive)	> 100 µM (inactive)	> 100 µM (inactive)
c1ccc(-c2cc(-c3cc(-c4ccccc4)[nH]n3)[nH]n2)cc1	> 100 µM (inactive)	> 100 µM (inactive)	> 100 µM (inactive)	> 100 µM (inactive)	> 100 µM	> 100 µM (inactive)	> 100 µM (inactive)	> 100 µM (inactive)	> 100 µM (inactive)	> 100 µM (inactive)	> 100 µM (inactive)	> 100 µM (inactive)	> 100 µM (inactive)	> 100 µM (inactive)	> 100 µM (inactive)	> 100 µM (inactive)	> 100 µM (inactive)	> 100 µM (inactive)	> 100 µM (inactive)	> 100 µM (inactive)
CC1(C)CC(Nc2ccc(Nc3ccccc3)cc2)CC(C)(C)N1	28.2 µM (inactive)	45.9 µM (inactive)	23 µM (inactive)	15.7 µM (inactive)	33.8 µM	17.7 µM (inactive)	16.7 µM (inactive)	16.8 µM (inactive)	17.1 µM (inactive)	42.4 µM (inactive)	27.9 µM (inactive)	10.1 µM (inactive)	18.4 µM (inactive)	68.2 µM (inactive)	15.8 µM (inactive)	15.2 µM (inactive)	48.6 µM (inactive)	50.2 µM (inactive)	26.1 µM (inactive)	16.1 µM (inactive)
O=C(O)CC(Cc1ccccc1)C(=O)O (stereo not given)	> 100 µM (inactive)	> 100 µM (inactive)	> 100 µM (inactive)	> 100 µM (inactive)	> 100 µM	> 100 µM (inactive)	> 100 µM (inactive)	> 100 µM (inactive)	50.4 µM (inactive)	> 100 µM (inactive)	> 100 µM (inactive)	> 100 µM (inactive)	> 100 µM (inactive)	> 100 µM (inactive)	> 100 µM (inactive)	> 100 µM (inactive)	37.2 µM (inactive)	> 100 µM (inactive)	> 100 µM (inactive)	> 100 µM (inactive)
O=[N+]([O-])/C(Cl)=C/C(=C1/Nc2ccccc2O1)[N+](=O)[O-]	19 µM (inactive)	34.8 µM (inactive)	19.2 µM (inactive)	14.6 µM (inactive)	16.6 µM	19.8 µM (inactive)	29.6 µM (inactive)	15.9 µM (inactive)	27.4 µM (inactive)	17.8 µM (inactive)	31.5 µM (inactive)	13.5 µM (inactive)	19.3 µM (inactive)	26.7 µM (inactive)	15.5 µM (inactive)	22.2 µM (inactive)	36.1 µM (inactive)	17.4 µM (inactive)	12.8 µM (inactive)	23.4 µM (inactive)
CC(=O)c1cc2c(s1)C(=O)c1sccc1C2=O	1.26 µM (inactive)	0.207 µM (active)	0.0553 µM (active)	0.218 µM (active)	0.0214 µM	0.0274 µM (active)	0.0301 µM (active)	< 0.01 µM (active)	0.198 µM (active)	0.0184 µM (active)	0.0908 µM (active)	0.0175 µM (active)	< 0.014 µM (active)	0.04 µM (active)	0.0181 µM (active)	< 0.0113 µM (active)	0.0156 µM (active)	0.0766 µM (active)	0.017 µM (active)	0.0333 µM (active)
Cc1cc2c(c(C)c1O)C(C)(C)CN2C(=O)C(C)(C)C	66.7 µM (inactive)	> 100 µM (inactive)	> 100 µM (inactive)	> 100 µM (inactive)	> 100 µM	80.7 µM (inactive)	> 100 µM (inactive)	56 µM (inactive)	26.1 µM (inactive)	42.5 µM (inactive)	> 100 µM (inactive)	> 100 µM (inactive)	14.4 µM (inactive)	> 100 µM (inactive)	> 100 µM (inactive)	25.1 µM (inactive)	> 100 µM (inactive)	> 100 µM (inactive)	> 100 µM (inactive)	> 100 µM (inactive)
